According to paper PMC9101764, “Synthesis and In Vitro Characterization of Selective Cannabinoid CB2 Receptor Agonists: Biological Evaluation against Neuroblastoma Cancer Cells” (Molecules, 2022):
Like-named read-outs stand apart in the source and are kept apart here.

Tests used:
SH-SY5Y cells [1] = system: SH-SY5Y cells; set-up: method as in PMID 26842917; details: presumably via a CB2R-independent mechanism; cited from earlier work
hCB1R = molecular target: T1, hCB1R (Homo sapiens, UniProt P21554); experiment: [3H]CP55,940 radioligand displacement assay, CHO cell membranes; type: binding; details: for displacement of [3H]CP55,940 at hCB1R: CHO membranes, 0.1 nM-10 μM compounds
T1 construct: expressed in transfected cells; host or cells: CHO cells (membranes)
T1 sequence (P21554 whole entry): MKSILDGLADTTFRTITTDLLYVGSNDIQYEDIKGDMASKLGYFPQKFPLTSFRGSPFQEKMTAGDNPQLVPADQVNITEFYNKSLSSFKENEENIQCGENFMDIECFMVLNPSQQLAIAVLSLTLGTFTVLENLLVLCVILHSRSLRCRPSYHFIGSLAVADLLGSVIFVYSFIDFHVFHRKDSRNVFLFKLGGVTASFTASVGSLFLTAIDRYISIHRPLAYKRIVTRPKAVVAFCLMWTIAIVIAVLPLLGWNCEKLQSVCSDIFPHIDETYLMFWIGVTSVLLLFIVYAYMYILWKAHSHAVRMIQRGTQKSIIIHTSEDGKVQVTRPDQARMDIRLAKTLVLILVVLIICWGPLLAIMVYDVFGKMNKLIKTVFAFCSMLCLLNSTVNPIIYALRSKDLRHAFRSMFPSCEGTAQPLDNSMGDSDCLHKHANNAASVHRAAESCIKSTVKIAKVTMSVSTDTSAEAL
Experimental: (§1) CHO cells stably expressing hCB1R or hCB2R were maintained at 37 °C and 5% CO2 in Gibco Ham’s F-12 nutrient mix (Fisher Scientific, Loughborough, UK ) supplemented with 2 mM L-glutamine, 10% fetal bovine serum (FBS), 0.6% penicillin−streptomycin (Fisher Scientific, Loughborough UK), and the disulfate salt of geneticin (G418) as previously described (Sigma-Aldrich, Poole, UK). For subsequent radioligand displacement assays, membranes were prepared by scraping cells from flasks, centrifuging the cells, and storing the cell pellet at −20 °C. When required for us, cell pellets were defrosted and diluted in tris buffer (50 mM Tris-HCl and 50 mM Tris-base). As we have described in previous studies, HitHunter (cAMP) and PathHunter (βarrestin2) CHO-K1 cells stably expressing hCB1R or hCB2R from DiscoveRx® (Eurofins, Fremont, CA, USA) were maintained at 37 °C, 5% CO2 in F-12 DMEM containing 10% FBS and 1% Pen/Strep with 800 µg/mL geneticin (HitHunter) or 800 µg/mL G418 and 300 µg/mL hygromycin B (PathHunter).
(§2) We have previously described radioligand displacement assays in detail. […] Binding reactions were terminated by ice-cold tris binding buffer and subsequent vacuum filtration (24-well sampling manifold (Brandel cell harvester; Brandel Inc., Gaithersburg, MD, USA)) using Brandel GF/B filters soaked in wash buffer at 4 °C for at least 24 h. Filters were washed with 1.2 mL of tris-binding buffer six times, then oven-dried for 60 min before being incubated in 3 mL of scintillation fluid (Ultima Gold XR, PerkinElmer, Seer Green, Buckinghamshire, UK). Radioactivity was quantified by liquid scintillation spectrometry. All compounds were first prepared at 10 mM solutions in DMSO. The final vehicle concentration for assays was 0.1% DMSO. All assays were performed in duplicate.
(§3) Estimates of Ki, EC50, and Emax were determined using non-linear regression three-parameters (GraphPad, Prism, v. 9.0).

hCB2R [2] = molecular target: T2, hCB2R (Homo sapiens, UniProt P34972); experiment: as above; type: binding; details: for displacement of [3H]CP55,940 at hCB2R: CHO membranes, 0.1 nM-10 μM compounds
T2 construct: host or cells: HitHunter CHO-K1 cells
T2 sequence (P34972 whole entry): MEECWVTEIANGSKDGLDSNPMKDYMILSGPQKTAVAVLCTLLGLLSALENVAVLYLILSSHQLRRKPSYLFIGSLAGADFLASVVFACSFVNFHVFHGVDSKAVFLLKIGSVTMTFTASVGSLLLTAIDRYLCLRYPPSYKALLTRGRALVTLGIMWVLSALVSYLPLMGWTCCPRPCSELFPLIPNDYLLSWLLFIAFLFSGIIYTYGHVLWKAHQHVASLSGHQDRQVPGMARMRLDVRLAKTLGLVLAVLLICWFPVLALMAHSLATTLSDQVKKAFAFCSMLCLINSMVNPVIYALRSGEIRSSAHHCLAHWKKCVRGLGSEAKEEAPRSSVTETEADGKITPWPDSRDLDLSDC
Experimental: as §1, §2, §3

hCB2R [3] = molecular target: T2, hCB2R; experiment: HitHunter cAMP assay: inhibition of FSK-stimulated cAMP accumulation in CHO cells; type: cell-based; details: for modulation of cAMP response: CHO cells expressing hCB2R
Experimental: For the cAMP inhibition assay, cells were treated with 10 μM FSK and synthetized compounds for 90 min to assess compound concentration-dependent activity.
as §1
The quantification of FSK-stimulated cAMP accumulation using the DiscoveRx HitHunter assay (DiscoveRx, Eurofins, Fremont, CA, USA) has been described in detail previously elsewhere. Briefly, 20,000 cells/well were plated in low-volume 96-well plates and incubated overnight in Opti-MEM with 1% FBS at 37 °C and 5% CO2. The next day, the media were replaced with cell assay buffer (DiscoveRx). Immediately after this, the cells were simultaneously treated with 10 µM FSK and ligands for 90 min. Subsequent additions of cAMP antibody solution and cAMP working detection solutions followed the manufacturer’s directions (DiscoveRx) and cells were stored for 60 min at room temperature. cAMP solution A (DiscoveRx) was added according to the manufacturer’s directions followed by another 60 min room temperature incubation prior to chemiluminescence being measured on a Cytation5 plate reader (top read, gain 200, integration time 10,000 ms).
as §3
(§4) Data are fitted to a non−linear regression (three parameter model, GraphPad v. 9.0). Data are mean ± S.E.M. of 6 independent experiments performed in triplicate.

hCB2R [4] = molecular target: T2, hCB2R; experiment: PathHunter β-arrestin2 recruitment assay in CHO cells; type: cell-based
Experimental: Compounds FG158a, FG160a, FG161a, and LV62 were also evaluated for their ability to recruit β-arrestin2, since G protein-coupled receptors also interact with β-arrestin, which facilitates receptor internalization, recycling, degradation, and signaling.
as §1
The quantification of β-arrestin2 recruitment using the DiscoveRx PathHunter assay has been described by our group previously and is summarized here.. Twenty thousand cells/well were grown overnight in Opti-MEM containing 1% FBS at 37 °C and 5% CO2 in low-volume 96 well plates. The next day, cells were treated with compounds for 90 min at 37 °C. Detection solution was added to cells according to the manufacturer’s directions (DiscoveRx) and cells were stored for 60 min at room temperature. After this incubation, chemiluminescence was quantified on a Cytation5 plate reader (top read, gain 200, integration time 10,000 ms).
as §3, §4

SH-SY5Y cells [5] = experiment: Sulforhodamine B (SRB) cell viability assay; type: cell-based, human; details: for effect on cell viability: 24 h, 48 h and 72 h, 2.5–40 µM; for IC50: Homo sapiens, 72 h of treatment, SRB, cis/trans mixture
Experimental: We tested the anti-proliferative activity of the novel CB2R agonists FG158a, FG160a, FG161a, and LV62 in neuroblastoma cell lines (Figure 4). The compounds were assayed as a mixture of cis and trans isomers. […] After 72 h of treatment, the effect was higher and could also be observed at lower concentrations. The inhibitory effect was confirmed in another neuroblastoma cell line, SK-N-BE cells.
Human neuroblastoma SHSY5Y and SK-N-BE cell lines were grown in DMEM (GIBCO, Paisley, UK) and MEM (Sigma-Aldrich, St.Louis, MO, USA), respectively, supplemented with 2 mM l-glutamine, […], 50 units/mL penicillin and 10% heat-inactivated fetal bovine serum (FBS) in a humidified atmosphere (5% CO2 at 37 °C). Cells were detached as previously described with 0.25% trypsin (Sigma-Aldrich) at 70–80% confluence.
(§5) Cells seeded for 24 h in triplicate in 96-well plates at a density of 8000 cells/well were left to adhere overnight. CB2R agonists were added to the culture in triplicate at concentrations ranging from 2.5–40 µM. After 24 h, 48 h, and 72 h, cells were fixed, shaking for 2 h at 4 °C with 50% v/v trichloroacetic acid and washed with distilled water. Cells left overnight to dry were stained with 0.4% w/v SRB in 1% v/v acetic acid (at room temperature for 30 min on a shaker) and then washed with 1% acetic acid to allow for the removal of the unbound dye. TRIS-HCl 10 mM, pH 7.4 was added to the cells and absorbance was measured at 495 nm as previously shown using a Glomax® Discover Microplate Reader (Promega, Madison, WI, USA). In combinatory assays, similar procedures were adopted and the CB2R antagonist SR144528 (1 µM) was added 1 h before the CB2 agonists (10, 20 and 40 µM) to SHSY5Y cells that were harvested as described above after 72 h of incubation.
Figure 4 Inhibition of cell viability. The effect on cell viability by CB2R agonists was determined by sulforhodamine B (SRB) assays in SH-SY5Y and SK-N-BE cell lines. SH-SY5Y cells were treated with the compounds indicated in the figure for 24 h (A), 48 h (B), and 72 h (C) at the concentrations reported in the histograms. SK-N-BE cells were treated with the same compounds for 72 h (D). Figures report cell viability (mean of at least 3 independent experiments ± SEM) as percent of cell survival vs. untreated cells (considered as 100% of survival). […] The statistical significance was calculated with two-way ANOVA using Dunnett’s multiple comparisons test.

SH-SY5Y cells [6] = experiment: SRB cell viability assay with pre-incubation of CB2R antagonist SR144528; type: cell-based, human; details: SR144528 1 µM added 1 h before, 72 h, agonists at 10, 20 and 40 µM
Experimental: To address a CB2R-mediated mechanism, we tested FG158a, LV62, and FG160a at inhibitory concentrations in SH-SY5Y cells pre-incubated with the CB2R antagonist SR144528. After 72 h of treatment, we observed a reversion in cell viability at 20 and 40 µM of FG158a and FG160a in the presence of SR144528. The inhibitory effect of LV62 was reverted only at 40 µM (Figure 5).
as §5, with “In combinatory assays, similar procedures were adopted and the CB2R antagonist SR144528 (1 µM) was added 1 h before the CB2 agonists (10, 20 and 40 µM) to SHSY5Y cells that were harvested as described above after 72 h of incubation.” left out
Figure 5 CB2R–mediated effect on cell viability. […] Figures (A–C) report cell viability (mean of 3 independent experiments) expressed as absorbance (Abs). The statistical significance was calculated with two-way ANOVA using Tukey’s multiple comparisons test (* p ≤ 0.05).

[7] = CHO cells expressing human CB2R, 10 μM FSK, 90 min
[8] = CHO cells expressing human CB2R, 90 min

Row | Compound | effect on SH-SY5Y cell proliferation (SH-SY5Y cells [1]) | Ki (hCB1R) | displacement of [3H]CP55,940 at hCB1R (hCB1R) | Ki (hCB2R [2]) | displacement of [3H]CP55,940 at hCB2R (hCB2R [2]) | EC50 (hCB2R [3]) | modulation of cAMP response (hCB2R [3]; 10 μM FSK, 90 min) | cAMP Inhibition Emax (% CP55,940) ± S.E.M (hCB2R [3]; [7]) | EC50 (hCB2R [4]) | β-Arrestin2 Recruitment Emax (% CP55,940) ± S.E.M (hCB2R [4]; [8]) | effect on cell viability (SH-SY5Y cells [5]) | IC50 (SH-SY5Y cells [5]) | melting point | β-arrestin2 recruitment (hCB2R [4]; CHO cells expressing hCB2R, 90 min) | reversion in cell viability in the presence of SR144528, agonist concentration (SH-SY5Y cells [6]) | Ki (hCB1R; read-out: CB1R Ki) | EC50 (hCB2R [3]; CHO cells expressing human CB2R, 10 μM FSK, 90 min, read-out: cAMP Inhibition EC50 (95% C.I.)) | EC50 (hCB2R [4]; CHO cells expressing human CB2R, 90 min, read-out: β-Arrestin2 Recruitment EC50 (95% C.I.))
1 | CCCC(C)(C)c1ccc2c(c1)OC(C)(C)[C@@H]1CC=C(C)C[C@@H]21 [JWH-133] | inhibits SH-SY5Y cell proliferation |  |  |  |  |  |  |  |  |  |  |  |  |  |  |  |  | 
2 | CC1CCC(NC(=O)c2cc3cccnc3n(CCCCCCl)c2=O)CC1 (stereo not drawn) [FG160a, 1-(5-chloropentyl)-N-(4-methylcyclohexyl)-2-oxo-1,2-dihydro-1,8-naphthyridine-3-carboxamide] |  | > 10 µM | not able to displace [^3H]CP55,940 | 0.0165 µM | fully displaced [^3H]CP55,940 | 0.6 µM | able to modulate the cAMP response | 90 ± 3.1 % CP55,940 | > 10 µM | 41 ± 1.0 % CP55,940 | inhibited cell viability | 13.2 µM | 124 to 126 °C |  |  |  |  | 
3 | CC1CCC(NC(=O)c2cc3cccnc3n(CCCCCO)c2=O)CC1 (stereo not drawn) [LV62, reference compound] |  | > 10 µM | not able to displace [^3H]CP55,940 | 0.037 µM |  | 0.034 µM |  | 110 ± 8.8 % CP55,940 | 0.063 µM | 65 ± 1.4 % CP55,940 | inhibited cell viability | 38.1 µM |  | produced an increase in the β-arrestin2 recruitment | only at 40 |  |  | 
4 | CC1CCC(NC(=O)c2cc3cccnc3n(CCCCCN=[N+]=[N-])c2=O)CC1 (stereo not drawn) [FG161a, 1-(5-azidopentyl)-N-(4-methylcyclohexyl)-2-oxo-1,2-dihydro-1,8-naphthyridine-3-carboxamide] |  |  | not able to displace [^3H]CP55,940 | 0.045 µM | fully displaced [^3H]CP55,940 |  | able to modulate the cAMP response | 78 ± 11 % CP55,940 |  | 47 ± 1.8 % CP55,940 | inhibited cell viability | 27.5 µM | 115 to 117 °C |  |  | > 10 µM | 0.76 µM | > 10 µM
